Results on seven compounds are retold here after article PMC10161260 (The Journal of antimicrobial chemotherapy, 2023).

The format of series [1] is in vivo, human. The settings on record: for Mean peak concentration in rectal tissue: 48 h after the first dose; for Time of peak mean concentration in rectal tissue: after the first dose; for Time rectal tissue concentrations remained measurable after the second dose: in vivo.
Series [2] is classed as in vivo, human. Conditions: for Cmax in PBMCs: all participants, geometric mean (95% CI).
The conditions of series [3]: stated as known, no reference given; cited from earlier work.
Details of series [4]: species or system human. The settings on record: in vivo.
Series [5] can be described thus: clinical. The settings on record: in vivo; for Cmax: po. Set-up: species or system human.
On the set-up of series [6]: species or system human. The settings on record: in vivo; for Antiretroviral drug detection, glans swab / Antiretroviral drug detection, urethral swab: male, human.
The test system of series [7] is HIV. The settings on record: cited from earlier work.
A short description of series [8]: clinical. Set-up: species or system human. Conditions: in vivo; for AUC0–120h in plasma / Cmax / Tmax / Mean plasma concentration by 72 h (48 h after the second dose): po.
A short description of series [9]: Rectal swab / rectal secretion drug concentrations after two oral doses in MSM. The class given is in vivo, human. The settings on record: for Mean concentration on rectal swabs at 48 h: 48 h after first dose (elvitegravir peak), geometric mean; for Concentration on rectal swabs by 120 h: LLOQ 1 ng/swab; for Time of peak mean concentration on rectal swabs: hours after first dose.

For series [10] the following is noted: cited from earlier work.

Read-outs that look alike come from different tables or passages of the source.

In the case of `CC(Cn1cnc2c(N)ncnc21)OCP(=O)(O)OP(=O)(O)OP(=O)(O)O` (stereo in doubt) [tenofovir diphosphate], in series [1], the “Mean peak concentration in rectal tissue” value was determined as 15.3 fmol/mg, the “Time of peak mean concentration in rectal tissue” value is 48 h and the “Time rectal tissue concentrations remained measurable after the second dose” value is reported as “at least 96 h”. Further, the “Cmax in PBMCs” value in series [2] is 552 (297–1026) fmol/10^6 PBMC. Moreover, in [2] (hours after first dose), the “Tmax in PBMCs” value was 28 h.

In general, Cmax refers to the highest concentration seen after dosing. Usually Tmax stands for the time at which the peak concentration occurs. `O=C(NCc1c(F)cc(F)cc1F)c1cn2c(c(O)c1=O)C(=O)N1[C@H]3CC[C@H](C3)O[C@@H]1C2` [bictegravir]: the “Protein binding in plasma” value in series [3] is “highly protein bound”. In [4], the “Urine concentration within 48 h after the second dose” value is “undetectable”. In series [4] (male, human), the “Antiretroviral drug detection, urine” value is 32/70 (46%); the “Detected in urine specimens” value is given as 46%; the Mean urine concentration result is on record as “less than 1 μg/mL”. In [5], the “AUC0–120h in rectal tissue” value is listed as 20.53 (5.14) ng × h/mg. In series [5] (male, human), the “Mean rectal tissue concentration relative to PAEC95” value is “did not reach more than twice the PAEC95”, the concentration at 2 h was 270 ng/g and the highest concentration (Cmax) turned out to be 290 ng/g. In series [6], the “Detection in penile secretions” value is reported as “not consistently detected”; the “Antiretroviral drug detection, glans swab” value is recorded as 2/71 (3%); the “Antiretroviral drug detection, urethral swab” value was 3/71 (4%). Also, the “95% protein-adjusted effective concentration (PAEC95)” value in series [7] was 162 ng/mL. In series [8] (human), the “Plasma AUC0–120h of bictegravir relative to elvitegravir” value is “more than twice”. The “AUC0–120h in plasma” value in [8] was 94 437 (8748) ng × h/mL. In [8] (male, human, 96 h), the “Mean plasma concentration 96 h after dosing” value is 273 (95% CI: 164–456) ng/mL. In series [8] (male, human), the peak concentration (Cmax) was determined as 1770 ng/mL and the Tmax was found to be 2 h. For the same compound, in [9], the “Mean concentration on rectal swabs at 48 h” value is recorded as 2.1 ng/swab and the “Concentration on rectal swabs by 120 h” value was “undetectable in most rectal swabs”.

Consider `C[C@H]1CO[C@@H]2Cn3cc(C(=O)NCc4ccc(F)cc4F)c(=O)c(O)c3C(=O)N12` [cabotegravir], for which, in series [10], the Tissue-to-plasma ratio result is recorded as “low tissue-to-plasma ratio”.

As for `COc1cc2c(cc1Cc1cccc(Cl)c1F)c(=O)c(C(=O)O)cn2[C@H](CO)C(C)C` [elvitegravir], in series [3], the “Protein binding in plasma” value was “highly protein bound”. In series [4] (male, human), the “Antiretroviral drug detection, urine” value is 4/73 (5%) and the “Detected in urine specimens” value is given as 5%. Further, the “AUC0–120h in rectal tissue” value in series [5] is 469.78 (321.92) ng × h/mg. In addition, in series [5] (male, human), the time of peak concentration (Tmax) came to 4 h, the concentration at 2 h was determined as 1070 ng/g and the Cmax was determined as 3310 ng/g. Further, in series [6], the “Detection in penile secretions” value was “not consistently detected”; the “Antiretroviral drug detection, glans swab” value is on record as 9/80 (11%); the “Antiretroviral drug detection, urethral swab” value is listed as 14/68 (21%). In [7], the “95% protein-adjusted inhibitory concentration (PAIC95)” value was 45 ng/mL. Moreover, in series [8], the “AUC0–120h in plasma” value is reported as 44 472 (4341) ng × h/mL and the “Mean plasma concentration by 72 h (48 h after the second dose)” value is listed as “undetectable”. Also, in series [8] (male, human), the highest concentration (Cmax) came to 2010 ng/mL and the Tmax is 28 h. In addition, in [9], the “Mean concentration on rectal swabs at 48 h” value is listed as 1085 ng/swab, the “Concentration on rectal swabs by 120 h” value is listed as “undetectable in most rectal swabs” and the “Time of peak mean concentration on rectal swabs” value (“Time … on rectal swabs” for short) was 48 h. In addition, the “Elvitegravir rectal swab concentration at 48 h relative to bictegravir” value in [9] (P = 0.029) is given as “over 500 times”.

Consider `Nc1nc(=O)n([C@@H]2CS[C@H](COP(=O)(O)OP(=O)(O)OP(=O)(O)O)O2)cc1F` [emtricitabine triphosphate], for which, in [1], the “Mean peak concentration in rectal tissue” value turned out to be 64.1 fmol/mg, the “Time of peak mean concentration in rectal tissue” value turned out to be 48 h and the “Time rectal tissue concentrations remained measurable after the second dose” value was “at least 96 h”. In addition, in series [2], the “Cmax in PBMCs” value was 7549 (6528–8729) fmol/10^6 PBMC. Besides, the Tmax in [2] (male, human, PBMCs, oral, 200 mg) was 26 h.

For the compound `Nc1nc(=O)n([C@@H]2CS[C@H](CO)O2)cc1F` [emtricitabine], the “Detected in urine specimens (tenofovir and emtricitabine together)” value in series [4] (male, human) was 273/276. Moreover, the “Time of peak mean rectal tissue emtricitabine concentration” value in series [5] (male, human) was 4 h. Moreover, the “Mean plasma concentration by 72 h (48 h after the second dose)” value in series [8] is “undetectable”. In series [9], the “Time … on rectal swabs” value amounted to 48 h. Also, the “Mean emtricitabine concentration on rectal swabs at 48 h (peak)” value came out at 57 ng/swab in series [9] (participants also receiving bictegravir) and 241 ng/swab in [9] (participants also receiving boosted elvitegravir).

`C[C@H](Cn1cnc2c(N)ncnc21)OCP(=O)(O)O` [tenofovir]: the “Detected in urine specimens (tenofovir and emtricitabine together)” value in series [4] (male, human) is 273/276. The “Tenofovir concentration in rectal tissue” value in series [5] (male, human) was “less than 1 ng/mg”. Further, the “Time … on rectal swabs” value in [9] was determined as 48 h. Also, the “Mean tenofovir concentration on rectal swabs at 48 h (peak)” value in [9] (not different between regimens) amounted to 16 ng/swab.
